Reference: patent US20260374767A1, “FUSED HETEROCYCLIC COMPOUNDS AND USES THEREOF” (Chengdu Zenitar Biomedical Technology Co., Ltd., priority 2022, published 2026)
pIC50: −log10 of the molar value.

What was measured:
[1] = system: SUM14PT; assay: In-vivo pharmacodynamic study on subcutaneous xenograft tumor model of breast cancer SUM14PT; design: species or system nude mice
Procedure: Experimental procedure: In this study, a mice model was established by subcutaneously inoculating SUM14PT tumor cells. Eight groups were divided for the experiment, with 6 mice in each group. The negative control group (Control) received normal saline at 0.2 mL per mice per administration, given orally once per day; the carboplatin control group (Carboplatin, Car) received 20 mg/kg at 0.2 mL per mice per administration, administered via intraperitoneal injection once every 7 days.

[2] = system: breast cancer MDA-MB-436; assay: In-vivo pharmacodynamic study on subcutaneous xenograft tumor model of breast cancer MDA-MB-436; design: species or system human tumor cells in NOD/SCID mice
Procedure: Strain: NOD/SCID; Grade: SPF; Source: Beijing Vitron River Bio-technology Co., Ltd.
The cells were washed 3 times with pre-cooled PBS, centrifuged at 300 g for 10 min, collected, re-suspended in PBS, and counted with a blood cell counting chamber, and the cell concentration was adjusted. After cell collection, the cell suspension was pre-cooled on ice. 100 μL of the cell suspension was administered via subcutaneous injection into the dorsal flank of the mice, and the grouped treatment was started when the tumor volume reached 200-300 mm^3.
Animal assay: all viable experimental animals scheduled for assay; Assay time: All animals were weighed before the modeling for test grouping. After modeling, the mice were weighed once every 2 days, and the weight change of the mice was recorded in real time. Effective criteria: tumor volume (TV), relative tumor volume (RTV) and relative tumor growth rate of subcutaneously implanted tumor model. […] The calculation formula of tumor volume (TV) was: TV (mm^3)=a×b2×0.5, where a and b were the long diameter and short diameter, respectively.
The evaluation index for anti-tumor activity was the relative tumor growth rate T/C (%), and the calculation formula was as follows: […]
Where, TRTV is relative tumor volume of the treatment group; CRTV is relative tumor volume of the negative control group. […] The tumor inhibition rate (%) was calculated by the formula below: […]
All raw data within the facility were collected manually according to the experimental scheme and the relevant guidelines of the research institution, or gathered by using a data acquisition system. Manually collected data can be transcribed into software such as Excel for analysis and reporting. The data from each group were quantitative, and the experimental data for each group of animals in the tables were expressed as mean±standard deviation (Mean±SD). In the figures, the experimental data ware described as mean±standard error of the mean (Mean±SEM). Statistical analysis, including t-tests and survival analysis, was performed by using the software such as EXCEL and GraphPad Prism.
After 24 days of administration, the tumor-bearing mice were anesthetized and euthanized. The tumor tissues were dissected, weighed, and photographed, and the tumor inhibition rate was calculated.

[3] = system: breast cancer MDA-MB-436; assay: Challenge experiment on subcutaneous xenograft tumor model of breast cancer MDA-MB-436 (large-volume tumors)
Procedure: Each group consisted of 5 mice and was administered orally once per day. The body weight of the mice was measured every 2 days, and the length and width of the tumors with a vernier caliper.

[4] = system: MDA-MB-436 cells; assay: Anti-proliferative activity assay, BRCA-mutated MDA-MB-436 cells (CCK8); type: cell-based; conditions: Homo sapiens, MDA-MB-436, BRCA-mutated, 72 h + 96 h
Text: (§1) 2. Anti-Proliferative Activity Assay of Cell:

[5] = Pharmacokinetic evaluation in SD rat; type: in vivo; conditions: SD rats
Procedure: Pharmacokinetic Evaluation of Compound in SD Rat
(§2) Experimental purpose: To learn pharmacokinetic profiles of compounds.
Experimental scheme: The pharmacokinetic profile of the compound was investigated by oral intravenous administration in SD rats.
Experimental procedure: The compound, a small amount of DMSO and a sodium chloride injection were added to prepare the final solution for administration. The compound was orally administered to 6 male SD rats. […] The supernatant was collected and transferred into a sample vial for assay. Range of standard curve: 10-10,000 ng mL^−1.

[6] = system: DLD-1 cells; assay: Anti-proliferative activity assay, BRCA wild-type DLD-1 cells (CCK8); type: cell-based; conditions: Homo sapiens, 72 h + 96 h
Text: as §1

[7] = system: gastric cancer PDX; assay: In-vivo pharmacodynamic study on PDX gastric cancer mice model; design: species or system patient-derived tumor in mice
Procedure: 7. In-Vivo Pharmacodynamic Study of Compound 6 on PDX Gastric Cancer Mice model
Experimental procedure: Tumor tissues from gastric cancer patients were used to establish a stable passaged tumor-bearing mice model. In this study, tumor fragments from mice that had been stably passaged three times were used for subcutaneous inoculation. Eight groups were divided for the experiment, with 6 mice in each group. The negative control group (Control) received normal saline at 0.2 mL per mice per administration, given orally once per day; the carboplatin control group (Carboplatin, Car) received 20 mg/kg at 0.2 mL per mice per administration, administered via intraperitoneal injection once every 7 days.

[8] = Pharmacokinetic evaluation in Balb/c mice; type: in vivo; conditions: 1 mg/kg orally
Procedure: Pharmacokinetic Evaluation of Compound in Balb/c Mice
as §2
Experimental scheme: The pharmacokinetic profile of the compound was investigated by means of administering it intravenously (1 mg kg^−1) and orally (1 mg kg^−1) to Balb/c mice.
Sample preparation: About 0.2 mg of the compound was dissolved in 10 μL DMSO, then a sodium chloride injection was added to make a 0.1 mg mL^−1 solution of the compound for administration.
Three mice were administered the compound intravenously (IV) at a dose of 1 mg kg^−1, and the other three were administered the compound orally (PO) at the same dose. […] The plasma concentration of the drug was quantitatively analyzed with the LC-MS/MS method, and pharmacokinetic parameters were calculated, including the time to peak concentration (Cmax), area under the concentration-time curve (AUC(0-t)), half-life (T1/2), clearance (CL), volume of distribution at steady state (Vdss), and bioavailability (F).

[9] = Body weight in MDA-MB-436 xenograft study; type: in vivo, NOD/SCID mice; conditions: for Body weight X ± SD, End: 24 days
Procedure: Animal assay: all viable experimental animals scheduled for assay; Assay time: All animals were weighed before the modeling for test grouping. After modeling, the mice were weighed once every 2 days, and the weight change of the mice was recorded in real time. Effective criteria: tumor volume (TV), relative tumor volume (RTV) and relative tumor growth rate of subcutaneously implanted tumor model. The long diameter and short diameter of the tumor was measured with vernier calipers every 2 days, and the anti-tumor effects of the tested drug was dynamically observed. The calculation formula of tumor volume (TV) was: TV (mm^3)=a×b2×0.5, where a and b were the long diameter and short diameter, respectively.
Each group consisted of 6 mice, all of which are administered orally once daily. […] After 24 days of administration, the tumor-bearing mice were anesthetized and euthanized. The tumor tissues were dissected, weighed, and photographed, and the tumor inhibition rate was calculated.

[10] = 0.03 mg/kg orally once daily, 24 days
[11] = 0.1 mg/kg orally once daily, 24 days
[12] = 0.3 mg/kg orally once daily, 24 days

[2H]C([2H])([2H])C([2H])([2H])c1cc2ncc(CN3CC=C(c4ccc(C(=O)NC)nc4)CC3)cc2[nH]c1=O [Compound 6, 1′-((7-(ethyl-d5)-6-oxo-5,6-dihydro-1,5-naphthyridin-3-yl)methyl)-N-methyl-1′,2′,3′,6′-tetrahy dro-[3,4′-bipyridine]-6-carboxamide]
therapeutic efficacy in combination with carboplatin, compared to Olaparib plus carboplatin ([1]; 1 mg/kg orally once daily + carboplatin vs Olaparib 100 mg/kg + carboplatin): better therapeutic efficacy than Olaparib | anti-tumor efficacy, monotherapy, compared to Olaparib ([1]; 0.3 and 1 mg/kg orally once daily vs Olaparib 100 mg/kg orally once daily): better anti-tumor efficacy compared to Olaparib | Tumor inhibition rate [2, 10]: 49.77% | Tumor weight X ± SD [2, 10]: 1.09 ± 0.29 g | Tumor volume X ± SD, End [2, 10]: 739.4 ± 308.7 mm^3 | Tumor volume X ± SD, Start ([2]; 0.03 mg/kg orally once daily): 275.0 ± 68.1 mm^3 | Tumor inhibition rate [2, 11]: 86.73% | Tumor weight X ± SD [2, 11]: 0.29 ± 0.09 g | Tumor volume X ± SD, End [2, 11]: 228.0 ± 75.9 mm^3 | Tumor volume X ± SD, Start ([2]; 0.1 mg/kg orally once daily): 274.7 ± 73.8 mm^3 | tumor inhibition effect, comparison with AZD5305, compound 1 and Olaparib ([2]; 0.1 mg/kg vs same dose of AZD5305 and compound 1, vs Olaparib 100 mg/kg): superior to that of the reference compound AZD5305 and the compound 1 at the same dose, and significantly better than that of the reference drug Olaparib group (100 mg/kg) | Tumor inhibition rate [2, 12]: 95.83% | Tumor weight X ± SD [2, 12]: 0.09 ± 0.08 g | Tumor volume X ± SD, End [2, 12]: 71.0 ± 62.5 mm^3 | Tumor volume X ± SD, Start ([2]; 0.3 mg/kg orally once daily): 281.9 ± 67.4 mm^3 | complete tumor regression ([2]; 0.3 mg/kg, at the end of treatment): 2/6 | dose dependence among low, medium and high dose groups ([2]; 0.03, 0.1, 0.3 mg/kg, P<0.001, P<0.01): significant dose-dependent differences | inhibitory effects on tumor growth compared to blank control group ([2]; 24 days, all dose groups): significant inhibitory effects on tumor growth | rate of tumor regression, comparison with compounds 1 and 21 ([3]; 1 mg/kg orally once per day): faster rate of tumor regression compared to the compounds 1 and 21 | tumor regression in large-volume tumors ([3]; 1 mg/kg orally once per day): complete regression of tumors | in-vivo anti-tumor efficacy, comparison with compounds 1 and 21 ([3]; 1 mg/kg, same dose): stronger in-vivo anti-tumor efficacy than compounds 1 and 21 | pIC50 [4]: 9.22 | Cmax, comparison with AZD5305, compound 1 and compound 21 [5]: superior to those of the reference compound AZD5305, compound 1 and compound 21 | pIC50 [6]: < 5.00 | inhibition of tumor growth in gastric cancer PDX model ([7]; 3 mg/kg p.o. combined with carboplatin 20 mg/kg i.p.): significantly inhibit tumor growth | inhibitory effect on gastric cancer PDX model ([7]; combined with carboplatin (20 mg/kg i.p. once every 7 days), 0.3, 1, 3 mg/kg p.o.): dose-dependent inhibitory effect | Cmax, comparison with AZD5305 and compounds 1, 2, 3, 15, 21 [8]: superior to that of the reference compound 5305, as well as compounds 1, 2, 3, 15, and 21 | Body weight X ± SD, End ([9]; 0.03 mg/kg orally once daily): 21.6 ± 0.7 g | Body weight X ± SD, Start ([9]; 0.03 mg/kg orally once daily): 22.6 ± 0.7 g | Body weight X ± SD, End ([9]; 0.1 mg/kg orally once daily): 21.6 ± 0.7 g | Body weight X ± SD, Start ([9]; 0.1 mg/kg orally once daily): 22.3 ± 1.0 g | Body weight X ± SD, End ([9]; 0.3 mg/kg orally once daily): 22.0 ± 0.9 g | Body weight X ± SD, Start ([9]; 0.3 mg/kg orally once daily): 22.3 ± 0.8 g
